Measured values published in patent EP0263903A1, “Method for preparing specific inhibitors of virus-specified proteases” (priority 1986, dated 1988).
Like-named read-outs stand apart in the source and are kept apart here. Residues, ends and D or L forms follow the SMILES beside them. *: point of attachment. Cbz = O=C(OCc1ccccc1)*; CH2Cl = ClC*

Tests used:
rhinovirus type 1A [1] = format: cell-based, human rhinovirus type 1A
poliovirus type 2 [2] = format: cell-based, human poliomyelitisvirus type 2
poliovirus type 2 [3] = format: cell-based
rhinovirus type 1A [4] = experiment: Plaque inhibition assay; format: cell-based, Human rhinovirus type 1A
chymotrypsin = conditions: inhibitor concentration of 600 µg/mL; cited from earlier work
subtilisin BPNʹ = conditions: series of peptide chloromethyl ketones; cited from earlier work

CC(=O)[C@H](CC(C)C)NC(=O)[C@H](C)NC(=O)CNC(=O)[C@H](Cc1ccccc1)NC(=O)OC(C)(C)C [Boc-Phe-Gly-Ala-LeuCH₃]
activity in the viral cleavage assay (rhinovirus type 1A [1]): failed to show activity | activity in the viral cleavage assay (poliovirus type 2 [2]): failed to show activity

COC(=O)CCC(=O)N[C@@H](Cc1ccccc1)C(=O)NCC(=O)N[C@@H](CC(C)C)C(=O)N[C@@H](CC(C)C)C(C)=O [MeOSuc-Phe-Gly-Leu-LeuCH₃]
activity in the viral cleavage assay (poliovirus type 2 [2]; 50 µg/mL): active

CC(=O)[C@H](CC(C)C)NC(=O)[C@H](C)NC(=O)CNC(=O)[C@H](Cc1ccccc1)NC(=O)OCc1ccccc1 [Z-Phe-Gly-Ala-LeuCH₃]
activity in the viral cleavage assay (poliovirus type 2 [2]; 50 µg/mL): active | plaque reduction (poliovirus type 2 [3]): > 90% | No cytotoxicity observed at concentrations up to (human HeLa-O cells): > 1 mg/mL | plaque reduction (rhinovirus type 1A [4]; 50 µg/mL in agar overlays, compared to control plates): > 90%

CC(C)C[C@H](NC(=O)[C@H](CC(C)C)NC(=O)CNC(=O)[C@H](Cc1ccccc1)NC(=O)OCc1ccccc1)C(=O)CCl [Z-Phe-Gly-Leu-LeuCH₂Cl] (Cbz-FGLL-CH2Cl)
cytotoxicity first detected at a concentration of (human HeLa-O cells): about 15 µg/mL | Antiviral activity, as scored by 90% plaque reduction, noted at (rhinovirus type 1A [4]; HeLa cells): 1 µg/mL

Ac-Leu-Leu-PheCH₃
inhibition of chymotrypsin (chymotrypsin): no inhibition was observed

acetyl-L-phenylalanyl-L-glycyl-L-alanyl-L-leucyl chloromethyl ketone (Ac-FGAL-CH2Cl; SMILES CC(=O)N[C@@H](Cc1ccccc1)C(=O)NCC(=O)N[C@@H](C)C(=O)N[C@@H](CC(C)C)C(=O)CCl) [Ac-Phe-Gly-Ala-LeuCH₂Cl]
inhibition of subtilisin BPNʹ (rate ranking among the compounds tested) (subtilisin BPNʹ): fastest inhibitor
